Here are results for one compound from article PMC4128046, “Effect of a toggle switch mutation in TM6 of the human adenosine A3 receptor on Gi protein-dependent signalling and Gi-independent receptor internalization” (British Journal of Pharmacology, 2014).

Where a chain is given by its changes, count along the chain named.

The target of test [1] is T1, A3 W243F-YFP (Homo sapiens, UniProt P0DMS8, W243F).
T1 construct: Full length A3 W243F-YFP was excised and subcloned into a native pcDNA3.1 vector; expressed in transfected cells
T1 sequence (P0DMS8 1-318 W243F): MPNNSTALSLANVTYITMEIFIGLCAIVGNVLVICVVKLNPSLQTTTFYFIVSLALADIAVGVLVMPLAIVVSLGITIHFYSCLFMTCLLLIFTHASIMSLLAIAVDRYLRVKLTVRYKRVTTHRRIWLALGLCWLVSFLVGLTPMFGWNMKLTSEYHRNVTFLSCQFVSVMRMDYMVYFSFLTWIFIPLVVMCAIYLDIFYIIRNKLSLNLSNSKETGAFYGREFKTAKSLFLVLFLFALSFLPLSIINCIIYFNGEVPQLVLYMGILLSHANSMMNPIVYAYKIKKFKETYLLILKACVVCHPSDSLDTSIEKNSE
In words: Fluorescence-based competition binding assay with CA200645, A3 W243F-YFP. As to conditions: A3 W243F-YFP cells, 25 nM CA200645, 60 min, 37°C. On the procedure:
(§1) On the day of analysis, normal growth medium was removed and cells washed once with HBSS pre-warmed to 37°C. […] Buffer was then removed from each well, cells washed once in HBSS and fresh HBSS added at room temperature. Plates were immediately imaged using an ImageXpress Ultra confocal plate reader, which captured four central images per well using a Plan Fluor 40× NA0.6 extra-long working distance objective. CA200645 was excited at 635 nm and emission collected through a 640–685 nm band pass filter. Total image intensity was obtained using a multiwave length cell scoring algorithm within MetaXpress software (Molecular Devices).
(§2) Time course experiments were fitted using a one phase association equation which is as follows [drawing 2] where Yo represents the level of internalization at time (t) equal to zero, Plateau is the maximal internalization at infinite time and K is the rate constant in […]. Statistical significance was determined by Student's unpaired t-test or by one-way ANOVA with Dunnett's post hoc analysis and P < 0.05 was considered statistically significant.

In test [2] the target is T2, A3-YFP (Homo sapiens, UniProt P0DMS8).
T2 construct: cDNA encoding the full length human A3 receptor; expressed in transfected cells
T2 sequence (P0DMS8 1-318): T1 sequence (P0DMS8 1-318 W243F) with F243W
Nature of the test: Fluorescence-based competition binding assay with CA200645, A3-YFP. Conditions: A3-YFP cells, 25 nM CA200645, 60 min, 37°C. On the procedure: as §1, §2

Usually Ki stands for the dissociation constant of the complex between target and ligand, obtained from inhibition or displacement. A low value points to tighter binding. Regarding `CCCCC#Cc1nc(NC)c2ncn([C@@H]3O[C@H](CO)[C@@H](O)[C@H]3O)c2n1` [HEMADO, 2-(1-hexynyl)-N-methyladenosine], the Ki is 0.0457 µM in test [1] and 0.0331 µM in test [2].
